Results published in the supplement of paper PMC10307832.

Tests used:
Assay in all cases: relative viability (nuclei count vs DMSO), 5 days (fraction); higher = more cells survive
UMC-11 = tested on: UMC-11
How it was run: (§1)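 Each reported value is a median over duplicate plates. It expresses relative viability: treated-well nuclei count divided by vehicle-well nuclei count. Lung cancer cell lines in 1536-well plates were dosed by pin tool a day after seeding, alone with one drug or with a fixed anchor-drug dose plus five library-drug doses (not always all listed) in √10 steps, and nuclei were counted after 5 days.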

COR-L23 = tested on: COR-L23
How it was run: as §1

SW 900 = tested on: SW 900
How it was run: as §1

NCI-H1563 = tested on: NCI-H1563
How it was run: as §1

HCC-15 = tested on: HCC-15
How it was run: as §1

EPLC-272H = tested on: EPLC-272H
How it was run: as §1

201T = tested on: 201T
How it was run: as §1

NCI-H1650 = tested on: NCI-H1650
How it was run: as §1

LOU-NH91 = tested on: LOU-NH91
How it was run: as §1

NCI-H647 = tested on: NCI-H647
How it was run: as §1

PC-14 = tested on: PC-14
How it was run: as §1

H3255 = tested on: H3255
How it was run: as §1

NCI-H2170 = tested on: NCI-H2170
How it was run: as §1

NCI-H3122 = tested on: NCI-H3122
How it was run: as §1

NCI-H322M = tested on: NCI-H322M
How it was run: as §1

NCI-H520 = tested on: NCI-H520
How it was run: as §1

NCI-H1734 = tested on: NCI-H1734
How it was run: as §1

NCI-H2405 = tested on: NCI-H2405
How it was run: as §1

NCI-H441 = tested on: NCI-H441
How it was run: as §1

NCI-H2347 = tested on: NCI-H2347
How it was run: as §1

NCI-H1793 = tested on: NCI-H1793
How it was run: as §1

NCI-H2023 = tested on: NCI-H2023
How it was run: as §1

`CC(=O)O[C@@]12CO[C@@H]1C[C@H](O)[C@@]1(C)C(=O)[C@H](O)C3=C(C)[C@@H](OC(=O)[C@H](O)[C@@H](NC(=O)OC(C)(C)C)c4ccccc4)C[C@@](O)([C@@H](OC(=O)c4ccccc4)[C@H]21)C3(C)C` [Docetaxel] + CCNC(=O)c1noc(-c2cc(C(C)C)c(O)cc2O)c1-c1ccc(CN2CCOCC2)cc1 [Luminespib] (partner 0.01 µM) gave a relative viability (UMC-11; first compound 0.0002 µM) of 1.02, a relative viability (UMC-11; first compound 0.000632 µM) of 0.917 and a relative viability (UMC-11; first compound 0.002 µM) of 0.406. The relative viability (UMC-11; first compound 0.006325 µM) was 0.271, the relative viability (UMC-11; first compound 0.02 µM) was 0.183 and the relative viability (COR-L23; first compound 0.0002 µM) was 0.632. The relative viability (COR-L23; first compound 0.000632 µM) was 0.622, the relative viability (COR-L23; first compound 0.002 µM) was 0.131 and the relative viability (COR-L23; first compound 0.006325 µM) was 0.128. For the same molecule, the relative viability (COR-L23; first compound 0.02 µM) was 0.101, the relative viability (SW 900; first compound 0.0002 µM) was 0.185 and the relative viability (SW 900; first compound 0.000632 µM) was 0.182. For the same molecule, the relative viability (SW 900; first compound 0.002 µM) was 0.174, the relative viability (SW 900; first compound 0.006325 µM) was 0.186 and the relative viability (SW 900; first compound 0.02 µM) was 0.167. It also gave a relative viability (NCI-H1563; first compound 0.0002 µM) of 0.518, a relative viability (NCI-H1563; first compound 0.000632 µM) of 0.522 and a relative viability (NCI-H1563; first compound 0.002 µM) of 0.515. It also gave a relative viability (NCI-H1563; first compound 0.006325 µM) of 0.457, a relative viability (NCI-H1563; first compound 0.02 µM) of 0.408 and a relative viability (HCC-15; first compound 0.0002 µM) of 0.35. For the same molecule, the relative viability (HCC-15; first compound 0.000632 µM) was 0.303, the relative viability (HCC-15; first compound 0.002 µM) was 0.173 and the relative viability (HCC-15; first compound 0.006325 µM) was 0.182. It also gave a relative viability (HCC-15; first compound 0.02 µM) of 0.12, a relative viability (EPLC-272H; first compound 0.0002 µM) of 0.133 and a relative viability (EPLC-272H; first compound 0.000632 µM) of 0.316. It also gave a relative viability (EPLC-272H; first compound 0.002 µM) of 0.205, a relative viability (EPLC-272H; first compound 0.006325 µM) of 0.0836 and a relative viability (EPLC-272H; first compound 0.02 µM) of 0.119. It also gave a relative viability (201T; first compound 0.0002 µM) of 1.08, a relative viability (201T; first compound 0.000632 µM) of 0.907 and a relative viability (201T; first compound 0.002 µM) of 0.8. It also gave a relative viability (201T; first compound 0.006325 µM) of 0.485, a relative viability (201T; first compound 0.02 µM) of 0.302 and a relative viability (NCI-H1650; first compound 0.0002 µM) of 0.22. For the same molecule, the relative viability (NCI-H1650; first compound 0.000632 µM) was 0.212, the relative viability (NCI-H1650; first compound 0.006325 µM) was 0.199 and the relative viability (NCI-H1650; first compound 0.02 µM) was 0.193. The relative viability (LOU-NH91; first compound 0.0002 µM) was 0.299, the relative viability (LOU-NH91; first compound 0.000632 µM) was 0.384 and the relative viability (LOU-NH91; first compound 0.002 µM) was 0.299. For the same molecule, the relative viability (LOU-NH91; first compound 0.006325 µM) was 0.266, the relative viability (LOU-NH91; first compound 0.02 µM) was 0.212 and the relative viability (NCI-H647; first compound 0.0002 µM) was 0.112. It also gave a relative viability (NCI-H647; first compound 0.000632 µM) of 0.126, a relative viability (NCI-H647; first compound 0.002 µM) of 0.147 and a relative viability (NCI-H647; first compound 0.006325 µM) of 0.12. For the same molecule, the relative viability (NCI-H647; first compound 0.02 µM) was 0.0798, the relative viability (PC-14; first compound 0.0002 µM) was 0.199 and the relative viability (PC-14; first compound 0.000632 µM) was 0.162. For the same molecule, the relative viability (PC-14; first compound 0.002 µM) was 0.116, the relative viability (PC-14; first compound 0.02 µM) was 0.127 and the relative viability (H3255; first compound 0.0002 µM) was 0.907. The relative viability (H3255; first compound 0.000632 µM) was 1.12, the relative viability (H3255; first compound 0.002 µM) was 0.755 and the relative viability (H3255; first compound 0.006325 µM) was 0.157. For the same molecule, the relative viability (H3255; first compound 0.02 µM) was 0.309, the relative viability (NCI-H2170; first compound 0.0002 µM) was 0.726 and the relative viability (NCI-H2170; first compound 0.000632 µM) was 0.704. For the same molecule, the relative viability (NCI-H2170; first compound 0.002 µM) was 0.451, the relative viability (NCI-H2170; first compound 0.006325 µM) was 0.261 and the relative viability (NCI-H2170; first compound 0.02 µM) was 0.148. The relative viability (NCI-H3122; first compound 0.0002 µM) was 0.088, the relative viability (NCI-H3122; first compound 0.000632 µM) was 0.101 and the relative viability (NCI-H3122; first compound 0.002 µM) was 0.104. The relative viability (NCI-H3122; first compound 0.006325 µM) was 0.0883, the relative viability (NCI-H3122; first compound 0.02 µM) was 0.115 and the relative viability (NCI-H322M; first compound 0.0002 µM) was 0.836. It also gave a relative viability (NCI-H322M; first compound 0.000632 µM) of 0.891, a relative viability (NCI-H322M; first compound 0.002 µM) of 0.788 and a relative viability (NCI-H322M; first compound 0.006325 µM) of 0.557. It also gave a relative viability (NCI-H322M; first compound 0.02 µM) of 0.347, a relative viability (NCI-H520; first compound 0.000632 µM) of 0.23 and a relative viability (NCI-H520; first compound 0.002 µM) of 0.233. The relative viability (NCI-H520; first compound 0.006325 µM) was 0.259, the relative viability (NCI-H520; first compound 0.02 µM) was 0.207 and the relative viability (NCI-H1734; first compound 0.0002 µM) was 0.213. It also gave a relative viability (NCI-H1734; first compound 0.000632 µM) of 0.197, a relative viability (NCI-H1734; first compound 0.002 µM) of 0.175 and a relative viability (NCI-H1734; first compound 0.006325 µM) of 0.161. The relative viability (NCI-H1734; first compound 0.02 µM) was 0.14, the relative viability (NCI-H2405; first compound 0.0002 µM) was 0.607 and the relative viability (NCI-H2405; first compound 0.000632 µM) was 0.603. It also gave a relative viability (NCI-H2405; first compound 0.002 µM) of 0.486, a relative viability (NCI-H2405; first compound 0.006325 µM) of 0.33 and a relative viability (NCI-H2405; first compound 0.02 µM) of 0.22. It also gave a relative viability (NCI-H441; first compound 0.0002 µM) of 0.294, a relative viability (NCI-H441; first compound 0.000632 µM) of 0.288 and a relative viability (NCI-H441; first compound 0.002 µM) of 0.3. The relative viability (NCI-H441; first compound 0.006325 µM) was 0.257, the relative viability (NCI-H441; first compound 0.02 µM) was 0.253 and the relative viability (NCI-H2347; first compound 0.0002 µM) was 0.513. The relative viability (NCI-H2347; first compound 0.000632 µM) was 0.631, the relative viability (NCI-H2347; first compound 0.002 µM) was 0.39 and the relative viability (NCI-H2347; first compound 0.006325 µM) was 0.311. For the same molecule, the relative viability (NCI-H2347; first compound 0.02 µM) was 0.34, the relative viability (NCI-H1793; first compound 0.0002 µM) was 0.174 and the relative viability (NCI-H1793; first compound 0.002 µM) was 0.238. It also gave a relative viability (NCI-H1793; first compound 0.006325 µM) of 0.177, a relative viability (NCI-H1793; first compound 0.02 µM) of 0.134 and a relative viability (NCI-H2023; first compound 0.0002 µM) of 0.682. It also gave a relative viability (NCI-H2023; first compound 0.000632 µM) of 0.346, a relative viability (NCI-H2023; first compound 0.002 µM) of 0.113 and a relative viability (NCI-H2023; first compound 0.006325 µM) of 0.105. For the same molecule, the relative viability (NCI-H2023; first compound 0.02 µM) was 0.0645.
